According to EP4332093A1, “SALT CONTAINING PIPERAZINE POLYCYCLIC DERIVATIVE, CRYSTAL FORM THEREOF, PREPARATION METHOD THEREFOR, AND USE THEREOF” (Shanghai Hansoh Biomedical Co., Ltd., priority 2021, dated 2022):
Where two headings read alike, the source gives them in different places.

Assays:
[1] = Solid stability experiment of crystal forms of salt (5 and 10 days); format: physicochemical
Method: About 1 mg of different crystal forms of salt were taken and placed under the conditions of light 5000lx, high temperature 60°C, high humidity 92.5%RH, high temperature and high humidity 50°C 75%RH for 5 days and 10 days. The salt content was determined by HPLC and external standard method, and the change of relevant substances was calculated by chromatographic peak area normalization method.

dopamine D3 receptor = target: T1, dopamine D3 receptor (Homo sapiens, UniProt P35462); assay: Radioligand binding assay, dopamine D3 receptor ([3H]-methylspiperone); conditions: Human Dopamine D3 Receptor membrane, [3H]-methylspiperone 0.5 nM
T1 construct: purchased PerkinElmer ES-173-M400UA
T1 sequence (P35462 whole entry): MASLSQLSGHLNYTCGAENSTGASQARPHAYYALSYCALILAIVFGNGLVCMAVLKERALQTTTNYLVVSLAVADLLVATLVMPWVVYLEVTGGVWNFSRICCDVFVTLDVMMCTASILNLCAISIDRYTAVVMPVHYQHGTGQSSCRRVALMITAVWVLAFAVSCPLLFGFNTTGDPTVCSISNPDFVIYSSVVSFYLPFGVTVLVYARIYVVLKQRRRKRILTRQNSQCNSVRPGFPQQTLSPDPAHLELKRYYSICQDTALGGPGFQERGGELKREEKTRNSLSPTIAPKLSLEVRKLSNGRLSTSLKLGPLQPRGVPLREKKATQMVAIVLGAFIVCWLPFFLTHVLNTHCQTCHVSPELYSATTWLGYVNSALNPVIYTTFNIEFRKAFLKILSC
Method: Determination of the binding ability of the compounds of the present invention to dopamine D3 receptor
The objective of this test example is to determine the affinity of the compounds for dopamine D3 receptor.
Experimental buffer: 50 mM Tris-HCl pH 7.4, 10 mm MgCl2; washing liquor: 50 mM Tris-HCl pH 7.4, stored at 4°C; 0.5% PEI solution: 0.5 g PEI dissolved in 100 mL ddH2O, 4°C storage of spare.
(§1) 5 µL of the test compounds (0.005 nM to 100 nM, 10 concentrations in total) and 100 µL of buffer were added to a 96-well assay plate. 1 µL of cell membrane and 300 µL of buffer were added to each well, and the plate was shaken at 600 rpm for 5 minutes. 100 µL of a mixed solution of buffer and [^3H]-methylspiperone (final concentration of 0.5 nM) was added to the reaction system per well, and the plate was shaken at 600 rpm for 5 minutes and incubated at 27°C for 30 min. The UNIFII,TER-96 GF/B filter plate pre-incubated with 0.5% PEI for 1 h was washed twice with the buffer (1 mL/well). The cell membrane suspension was added to the […]-96 GF/B filter plate, washed 4 times, and incubated at 55°C for 10 min. 40 µL of ULTIMA GOLD was added to each well, and liquid scintillation counting was carried out.
(§2) The CPM (Counts per minute) values were determined by TopCount. […] The 10 concentrations of the compound were from 100 nM to 0.005 nM after 3-fold dilution of the reaction system. The percent inhibition rate and ten-point concentration data were fitted to the parametric nonlinear logistic equation by using GraphPad prism to calculate the IC50 values of the compound.

5-HT2A receptor [2] = target: T2, 5-HT2A receptor (Homo sapiens, UniProt P28223); assay: Radioligand binding assay, 5-HT2A receptor ([3H]-Ketanserin); set-up: purchased PerkinElmer; conditions: Human 5-HT2A Receptor membrane, [3H]-Ketanserin 2 nM; read-out: 5HT-2A Binding IC50
T2 sequence (P28223 whole entry): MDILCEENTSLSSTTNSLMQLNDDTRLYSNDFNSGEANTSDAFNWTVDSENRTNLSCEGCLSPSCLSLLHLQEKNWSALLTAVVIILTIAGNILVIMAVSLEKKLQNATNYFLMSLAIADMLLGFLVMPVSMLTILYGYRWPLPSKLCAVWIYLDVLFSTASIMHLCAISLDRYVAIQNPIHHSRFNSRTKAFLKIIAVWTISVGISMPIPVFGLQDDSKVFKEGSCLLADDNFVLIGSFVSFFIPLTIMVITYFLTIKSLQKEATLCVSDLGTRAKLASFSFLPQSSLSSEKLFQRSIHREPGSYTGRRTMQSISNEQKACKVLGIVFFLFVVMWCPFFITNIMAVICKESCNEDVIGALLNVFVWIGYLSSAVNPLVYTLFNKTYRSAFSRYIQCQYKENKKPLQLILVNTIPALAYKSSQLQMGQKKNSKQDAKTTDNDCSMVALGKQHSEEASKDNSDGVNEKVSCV
Method: Determination of the binding ability of the compounds of the
present invention to 5-HT2A receptor
The objective of this test example is to determine the affinity of the compounds for 5-HT2A receptor.
Experimental buffer: 50 mM Tris-HCl pH 7.4, 4 mM CaCl2; washing liquor: 50 mM Tris-HCl pH 7.4, stored at 4°C; 0.5% PEI solution: 0.5 g PEI dissolved in 100 mL ddH2O, 4°C storage of spare.
as §1, with “plate. 1.5” for “plate. 1”, “and [^3H]-Ketanserin” for “and [^3H]-methylspiperone”, “of 2” for “of 0.5”, “The […]-96” for “The UNIFII,TER-96”
as §2

5-HT2A receptor [3] = target: T2, 5-HT2A receptor; assay: Calcium ion mobility in cells stably expressing 5-HT2A receptors (Flp-In-CHO-5HT2A, FLIPR); format: cell-based; set-up: expressed in transfected cells; conditions: Flp-In-CHO-5HT2A stable pool, 5HT stimulation
Method: Determination of the effect of the compounds of the present invention on calcium ion mobility in cells stably expressing 5-HT2A receptors
To determine the inhibitory effect of the compounds on 5-HT2A receptor.
• 1) Preparation of the buffer: 1 x HBSS, 20 mM HEPES, 2.5 mM probenecid (probenecid was 400 mM stock in 1 M NaOH), 0.1% BSA. Probenecid and BSA were added fresh on the day of the experiment. Experimental buffers include dye buffer and compound dilution buffer. • 2) Cell culture medium: Ham's F-12K + 10% fetal bovine serum + 600 µg/ml hygromycin B + 1* penicillin-streptomycin. Seeding medium: Ham's F-12K + 10% dialysis serum; Assay buffer: 1 x HBSS + 20 mM HEPES; Cell line: Flp-In-CHO-5HT2A stable pool. • 3) The cells were cultured in the complete medium at 37°C, 5% CO2 to 70%-90% confluency. The cells were digested with TrypLE, seeded to the 384-well assay plate at a density of 1 × 10^4 cells/well, and incubated for 16 to 24 hours (at least overnight). • 4) 20X Component A was thawed to room temperature, diluted to 2X working concentration (containing 5mM Probenecid) with the assay buffer, and placed at room temperature for later use. • 5) The cell culture plate was taken out and left to stand at room temperature for 10 min. […] 10 µl of diluted 5HT was add to each experimental well using FLIPR Tetra, and the values were read.
The calcium signal values were determined by FLIPR. The calculated output for each sampling time point in the experiment was the ratio of the 340/510 nm wavelength signals to 380/510 nm wavelength signals. The maximum minus minimum calculation was derived from the ratio signal curve. The percent inhibition rate and ten-point concentration data were fitted to the parametric nonlinear logistic equation by using GraphPad prism to calculate the IC50 values of the compound.

D3 receptor = target: T3, D3 receptor (Homo sapiens, UniProt P35462); assay: cAMP content in cells stably expressing D3 receptors (CHO-D3, forskolin, HTRF); format: cell-based
T3 construct: expressed in transfected cells
T3 sequence (P35462 whole entry): as the sequence (P35462 whole entry) above
Method: Determination of the effect of the compounds of the present invention on cAMP content in cells stably expressing D3 receptors
To determine the activation effect of the compounds on D3 receptor.
• 1. Preparation of the buffer: 1* HBSS + 20mM HEPES + 0.1% BSA + 500 µM IBMX. Complete medium: Ham's F12K + 10% fetal bovine serum +1* penicillin-streptomycin + 400 µg/mL G418. • 2. CHO-D3 cells were cultured in the complete medium at 37°C, 5% CO2. After TrypLE digestion, the cells were resuspended in the experimental buffer, and seeded into a 384-well cell culture plate at a seeding density of 8000 cells per well. • 3. The experimental buffer (1*HBSS, 0.1% BSA, 20 mM HEPES and 500 µM IBMX) was prepared. The compound was diluted with the buffer. 2.5 µL of the compound solution was added to each well, and the plate was incubated at 37°C for 10 minutes. The forskolin was diluted to 8 µM (8*) with the experimental buffer. 2.5 µL of the diluted 8* forskolin was added, and the plate was incubated at 37°C for 30 minutes. cAMP-d2 and Anti-cAMP-Eu^3+ were thawed, and diluted by 20-fold with the lysis buffer. 10 µL of cAMP-d2 was added to the experimental well, followed by the addition of 10 µL of Anti-cAMP-Eu^3+. The reaction plate was centrifuged at 200 g for 30 s at room temperature, and left to stand at 25°C for 1 h. Data was collected using Envision.

[4] = Pharmacokinetic assay in Balb/c mice (plasma and brain tissue); format: in vivo; conditions: male, mouse, po, p.o. 5 mg/kg; for AUC(0-t): read-out: Area under curve AUC0-t; for Tmax: read-out: Peak time tmax; for Cmax: read-out: Plasma concentration Cmax
Method: Balb/c mice were used as test animals. The pharmacokinetic behavior in mouse body (plasma and brain tissue) of the compounds of Examples of the present invention was studied at an oral administration dose of 5 mg/kg.
Compounds of the Examples of the present invention, prepared by the applicant.
Male Balb/c mice (12 mice per group), purchased from Shanghai Jiesijie Laboratory Animal Co., LTD, with Certificate No.: SCXK (Shanghai) 2013-0006 N0.311620400001794.
The test compound was dissolved in 0.5% CMC-Na (1% Tween80) by sonication to formulate a clear solution or homogeneous suspension.
After an overnight fast, male Balb/c mice (12 mice per group) were administered p.o. with the test compound at an administration dose of 5 mg/kg and an administration volume of 10 mL/kg.
0.2 mL of blood was taken from the heart of the mouse before administration and at 1, 2, 4, 8 and 24 hours after administration, and the mice were sacrificed with CO2. The samples were stored in EDTA-K2 tubes, and centrifuged for 6 minutes at 4°C, 6000 rpm to separate the plasma. The plasma samples were stored at -80°C. Whole brain tissue was taken out, weighed, placed in a 2 mL centrifuge tube, and stored at -80°C.
• 1) 160 µL of acetonitrile was added to 40 µL of the plasma sample for precipitation, and then the mixture was centrifuged for 5 to 20 minutes at 3500 × g. • 2) 90 µL of acetonitrile containing internal standard (100 ng/mL) was added to 30 µL of the plasma and brain homogenate sample for precipitation, and then the mixture was centrifuged for 8 minutes at 13000 rpm. • 3) 70 µL of water was added to 70 µL of the treated supernatant and mixed by vortex for 10 minutes. 20 µL of the supernatant was taken to analyze the concentration of the test compound by LC/MS/MS. LC/MS/MS analytical instrument: AB Sciex API 4000 Qtrap.
• Liquid chromatography condition: Shimadzu LC-20AD pump • Chromatographic column: Agilent ZORBAX XDB-C18 (50×2.1 mm, 3.5 µm); Mobile phase: Eluent A was 0.1% formic acid in water, and Eluent B was acetonitrile • Flow rate: 0.4 mL/min • Elution time: 0-4.0 minutes, the eluent is as follows:
The main parameters of pharmacokinetics were calculated by WinNonlin 6.1. Table 17: Experimental results of pharmacokinetic assay in mice

[5] = High humidity (92.5% RH), 5 Days
[6] = High humidity (92.5% RH), 10 Days
[7] = High temperature (60°C), 5 Days
[8] = High temperature (60°C), 10 Days
[9] = High temperature and high humidity (50°C 75%RH), 5 Days
[10] = High temperature and high humidity (50°C 75%RH), 10 Days

O=C(N[C@H]1C[C@H](CCN2CCN(c3cccc(Cl)c3Cl)CC2)C1)c1ncco1 [crystal form B of p-toluenesulfonate]
crystal form stability (single impurity) ([1]; light conditions (5000lx)): single impurity increases significantly | crystal form stability ([1]; other conditions (60°C, 92.5% RH, 50°C 75% RH)): stable

O=S(=O)(NC1CC(CCN2CCN(c3cccc(Cl)c3Cl)CC2)C1)C1CC1 (centres unmarked) [Example 11, N-(3-(2-(4-(2,3-Dichlorophenyl)piperazin-1-yl)ethyl)cyclobutyl)cyclopropanesulfon amide]
IC50 (dopamine D3 receptor): 0.62 nM | IC50 (5-HT2A receptor [2]): 44 nM

O=C(N[C@H]1C[C@H](CCN2CCN(c3cccc(Cl)c3Cl)CC2)C1)c1ncco1 [Crystal form A of hydrochl oride]
Maximum single impurity increase% [1, 5]: 0.06% | Total impurity increase% [1, 5]: 0.06% | Maximum single impurity increase% [1, 6]: <0.02% | Total impurity increase% [1, 6]: <0.02% | Maximum single impurity increase% [1, 7]: <0.02% | Total impurity increase% [1, 7]: <0.02% | Maximum single impurity increase% [1, 8]: <0.02% | Total impurity increase% [1, 8]: 0.03% | Maximum single impurity increase% [1, 9]: <0.02% | Total impurity increase% [1, 9]: <0.02% | Maximum single impurity increase% [1, 10]: <0.02% | Total impurity increase% [1, 10]: <0.02% | Maximum single impurity increase% ([1]; Light (5000lx), 5 Days): <0.02% | Total impurity increase% ([1]; Light (5000lx), 5 Days): <0.02% | Maximum single impurity increase% ([1]; Light (5000lx), 10 Days): <0.02% | Total impurity increase% ([1]; Light (5000lx), 10 Days): <0.02%

O=C(N[C@H]1C[C@H](CCN2CCN(c3cccc(Cl)c3Cl)CC2)C1)c1ncco1 [Crystal form B of p-toluene sulfonate]
Maximum single impurity increase% [1, 5]: <0.02% | Total impurity increase% [1, 5]: <0.02% | Total impurity increase% [1, 8]: <0.02% | Maximum single impurity increase% ([1]; Light (5000lx), 5 Days): 0.13% | Total impurity increase% ([1]; Light (5000lx), 5 Days): 0.03% | Maximum single impurity increase% ([1]; Light (5000lx), 10 Days): 0.13% | Total impurity increase% ([1]; Light (5000lx), 10 Days): 0.19%

O=C(NC1CC(CCN2CCN(c3cccc(Cl)c3Cl)CC2)C1)C1(O)CC1 (centres unmarked) [Example 6, N-(3-(2-(4-(2,3-Dichlorophenyl)piperazin-1-yl)ethyl)cyclobutyl)-1-hydroxycyclopro pane-1-carboxamide]
IC50 (5-HT2A receptor [3]): 13.1 nM | EC50 (D3 receptor): 2.9 nM | AUC(0-t) ([4]; Brain): 1970 ng·h/mL | Tmax ([4]; Brain): 1 h | Cmax ([4]; Brain): 464 ng/mL | AUC(0-t) ([4]; Plasma): 2330 ng·h/mL | AUC(0-inf) ([4]; Plasma, read-out: Area under curve AUC0-∞): 2460 ng·h/mL | MRT ([4]; Plasma, read-out: Average residence time MRT): 2.8 h | half-life ([4]; Plasma, read-out: Half life t1/2 (converted)): 1.9 h | Tmax ([4]; Plasma): 0.5 h | Cmax ([4]; Plasma): 865 ng/mL
